From the NIST ThermoML archive (doi:10.1021/je700254t)

Experiment: xn = mol fraction of the nth substance listed
Conditions: 101.3 kPa, Liquid

ClC(Cl)Cl [trichloromethane] + CCCO
mass density [kg/m3]
Conditions	288.15 K	293.15 K	298.15 K	303.15 K	308.15 K	313.15 K
x2 = 0	1498.08	1488.64	1479.15	1469.61	1460.03	1450.41
x2 = 0.0493	1465.28	1456.03	1446.74	1437.41	1428.01	1418.58
x2 = 0.0992	1432.56	1423.54	1414.47	1405.35	1396.17	1386.95
x2 = 0.1499	1399.07	1390.3	1381.48	1372.61	1363.67	1354.7
x2 = 0.2002	1365.96	1357.46	1348.9	1340.28	1331.6	1322.86
x2 = 0.2496	1333.59	1325.35	1317.05	1308.69	1300.27	1291.8
x2 = 0.2999	1300.43	1292.46	1284.43	1276.34	1268.19	1260.01
x2 = 0.3493	1267.61	1259.92	1252.16	1244.35	1236.47	1228.55
x2 = 0.4004	1233.49	1226.07	1218.59	1211.06	1203.46	1195.83
x2 = 0.4502	1200.08	1192.93	1185.74	1178.48	1171.16	1163.79
x2 = 0.5001	1166.15	1159.29	1152.38	1145.42	1138.38	1131.32
x2 = 0.5497	1132.24	1125.66	1119.03	1112.35	1105.6	1098.81
x2 = 0.5999	1097.62	1091.33	1084.99	1078.61	1072.15	1065.65
x2 = 0.6497	1062.78	1056.79	1050.75	1044.65	1038.49	1032.31
x2 = 0.7001	1027.34	1021.65	1015.91	1010.11	1004.26	998.364
x2 = 0.7499	991.931	986.531	981.083	975.586	970.031	964.415
x2 = 0.7998	956.019	950.913	945.767	940.572	935.323	930.03
x2 = 0.8503	919.243	914.435	909.588	904.699	899.757	894.778
x2 = 0.9002	882.47	877.949	873.397	868.803	864.163	859.496
x2 = 0.95	845.487	841.239	836.96	832.652	828.298	823.912

CCCO [propan-1-ol] + c1ccccc1
x1 = 1
Conditions	mass density [kg/m3]
288.15 K	807.69
293.15 K	803.703
298.15 K	799.692
303.15 K	795.65
308.15 K	791.576
313.15 K	787.466
